In patent publication US4145554A, “3-Nitropyrazole derivatives” (Eli Lilly and Company, priority 1977, dated 1979):
Converted amounts (≈) assume the structure as drawn.

Key:
[1] = system: Proteus sp.; assay: agar dilution technique (MIC); format: cell-based
[2] = system: Staphylococcus sp.; assay: in vitro tube dilution test (MIC); format: cell-based
[3] = system: H. meleagridis; assay: Blackhead in poultry, turkeys; format: in vivo
Experimental: One- to three-week-old chicks and turkey poults were obtained from homogeneous source flocks and allocated into treatment groups. Some groups were held as infected, untreated controls, and other groups were treated with 3-nitropyrazoles by administering the compounds in the birds' feed. Various concentrations of the pyrazoles were administered to determine the least concentration which protected the birds. A few days after the administration of medicated feed began, all of the birds were challenged by rectally administering a suspension of at least 5,000 H. meleagridis protozoa per chick. The challenge organisms had been originally obtained from infected chickens, and were grown in vitro to provide a supply of organisms for testing.
The birds were held for about seven days after the challenge was administered, during which time the administration of pyrazole-medicated feed was continued. Then all of the chicks, including the untreated, infected controls, were sacrificed and necropsied. The cecum and the liver of each bird were examined for characteristic H. meleagridis lesions.
For each compound, the lowest feed concentration which gave an active response is indicated. While feed consumption data were not taken during the tests, the birds ate at such a rate that a feed concentration of 0.02 percent is equivalent to a treatment rate of about 10 mg./kg./day.

[4] = system: Diplococcus pneumoniae; assay: agar dilution technique (MIC); format: cell-based; conditions: Streptococcus pneumoniae
[5] = system: P. multocida; assay: Mice infected with P. multocida, compound in drinking water; format: in vivo; conditions: 7 days
Experimental: Some of the 3-nitropyrazoles were also administered to mice infected with P. multocida. Tests were conducted in which the pyrazoles were administered both by injection and in the drinking water.
The table below reports results of tests in which the compound was administered in the water. Groups of 10 standardized white mice were segregated, and each mouse was infected by injecting a broth culture of P. multocida subcutaneously. The administration of the test compounds was begun at the same time the mice were infected by adding a known amount of the test compound to the drinking water of the mice. One group of infected control mice received no treatment. The mice were observed, and the test was concluded at the end of 7 days. The number of mice in each group which survived the P. multocida infection was recorded.

[6] = system: Enterobacter cloacae and aerogenes; assay: agar dilution technique (MIC); format: cell-based
[7] = system: Streptococcus sp.; assay: in vitro tube dilution test (MIC); format: cell-based
[8] = system: Streptococcus pyogenes; assay: agar dilution technique (MIC); format: cell-based
[9] = system: Vibrio coli; assay: in vitro tube dilution test (MIC); format: cell-based; conditions: Campylobacter coli
[10] = system: avian E. coli; assay: Colibacillosis in chickens, medicated feed; format: in vivo
[11] = system: Staphylococcus aureus; assay: agar dilution technique (MIC); format: cell-based
[12] = system: Bordetella bronchiseptica; assay: in vitro tube dilution test (MIC); format: cell-based
[13] = system: Salmonella pullorum 9-27; assay: in vitro tube dilution test (MIC); format: cell-based; conditions: Salmonella enterica; Salmonella pullorum 9-27, tube dilution
[14] = system: Mima polymorpha; assay: agar dilution technique (MIC); format: cell-based
[15] = system: Clostridium perfringens; assay: microbe, parasite or virus in culture; format: cell-based
[16] = system: naturally-occurring pneumoenteritis complex infection (pasteurella species, E. coli and salmonellae); assay: Pneumoenteritis complex disease in calves, first test; format: in vivo; conditions: for Mortality / Avg. Wt. Gain: milk replacer, 56 days; for Avg. Wt. Gain: survivors
Experimental: Our compound, 1-(2-hydroxyethyl)-3-nitro-4-pyrazolecarboxamide, was evaluated in the control of a naturally-occurring pneumoenteritis complex infection of calves. […] A group of 24 calves was allocated randomly into three treatment groups. The average weights of the treatment groups were nearly identical at the start of the experiment. The calves were housed in quarters which were kept as clean as typical calf quarters, but in which calves suffering from pneumoenteritis complex had previously been housed. […] One group was a control group, and was fed on a typical milk replacer diet. The other two groups received 200 mg. and 400 mg. per day respectively of the 3-nitro-pyrazole compound, mixed in their milk replacer diets.
The calves were carefully observed daily to detect signs of illness as quickly as such signs appeared. The calves were weighed at weekly intervals. Various organs were removed from the calves which died during the experiment, and cultures were prepared from the organs to identify microorganisms. At the end of the 56-day experiment, cultures were prepared from nasal and rectal swabs of the surviving calves, and microorganisms in the cultures were identified.

[17] = system: Streptococcus pyogenes; assay: Tests in mice, Streptococcus pyogenes infection; format: in vivo; conditions: S. pyogenes
Experimental: Groups of laboratory mice were inoculatd with E. coli or with Streptococcus pyogenes. The 3-nitropyrazoles were administered in two different modes to the infected mice. In one group of tests, the compound was administered in two subcutaneous doses of 83 mg./kg. each, given 1 and 5 hours after the mice were inoculated with the organism. The mice were observed, and the results reported below as the number of days the treated mice survived the challenge.
In the other group of tests, the dose of each compound which allowed 50 percent of the treated mice to survive the challenge was determined. Again, the compound was administered in subcutane divided doses, 1 and 5 hours post-inoculation.

[18] = system: Pasteurella multocida and P. hemolytica; assay: Pasteurella pneumonia in calves; format: in vivo
[19] = system: Streptococcus sp. (group E); assay: in vitro tube dilution test (MIC); format: cell-based
[20] = 100 gm./ton, 10^-1 dilution challenge, initial weight 940 gm.
[21] = 100 gm./ton, further test, about 5 weeks of age
[22] = 200 gm./ton, 10^-1 dilution challenge, initial weight 940 gm.
[23] = 200 gm./ton, further test, about 5 weeks of age
[24] = 300 gm./ton feed, about 5 weeks old, 10^-2 dilution challenge, first test
[25] = 300 gm./ton, 10^-1 dilution challenge, initial weight 940 gm.
[26] = 200 mg./day/calf (3-5 mg./kg./day)
[27] = 400 mg./day/calf (6-10 mg./kg./day)
[28] = 8 days after challenge, 25 mg. per kg. intramuscular

NC(=O)c1cn(CCO)nc1[N+](=O)[O-] [Compound 32, 1-(2-hydroxyethyl)-3-nitro-4-pyrazolecarboxamide]
MIC [1]: > 128 µg/mL | MIC [2]: 3.12 µg/mL (≈ 15.6 µM) | Active Level (lowest feed concentration which gave an active response) [3]: .02% | MIC [4]: 2 µg/mL (≈ 9.99 µM) | Survival ([5]; 0.1 gm./gal. in drinking water): 8/10 | Survival ([5]; 0.2 gm./gal. in drinking water): 10/10 | MIC [6]: 32 µg/mL (≈ 160 µM) | MIC [7]: 25 µg/mL (≈ 125 µM) | MIC [8]: 32 µg/mL (≈ 160 µM) | MIC [9]: 6.25 µg/mL (≈ 31.2 µM) | Avg. Wt. [10, 20]: 1239 gm. | E. coli Lesions [10, 20]: 17/18 | Mortality [10, 20]: 0/18 | Mortality ([10]; 100 gm./ton, approximately 7-week-old chickens): 3/12 | E. coli Lesions ([10]; 100 gm./ton, approximately 7-week-old chickens, birds which died not examined): 5/9 | Avg. Wt. [10, 21]: 1209 gm. | E. coli Lesions [10, 21]: 37/40 | Mortality [10, 21]: 6/40 | Avg. Wt. [10, 22]: 1250 gm. | E. coli Lesions [10, 22]: 16/18 | Mortality [10, 22]: 0/18 | Avg. Wt. [10, 23]: 1353 gm. | E. coli Lesions [10, 23]: 31/40 | Mortality [10, 23]: 2/40 | E. coli Lesions [10, 24]: 11/30 | Mortality [10, 24]: 0/30 | Wt. [10, 24]: 1103 gm. | Avg. Wt. [10, 25]: 1302 gm. | E. coli Lesions [10, 25]: 5/18 | Mortality [10, 25]: 0/18 | Mortality ([10]; 300 gm./ton, approximately 7-week-old chickens): 0/12 | E. coli Lesions ([10]; 300 gm./ton, approximately 7-week-old chickens, birds which died not examined): 4/12 | Mortality ([10]; 600 gm./ton, approximately 7-week-old chickens): 0/12 | E. coli Lesions ([10]; 600 gm./ton, approximately 7-week-old chickens, birds which died not examined): 2/12 | Mortality ([10]; 1000 gm./ton, approximately 7-week-old chickens): 0/12 | E. coli Lesions ([10]; 1000 gm./ton, approximately 7-week-old chickens, birds which died not examined): 0/12 | MIC [11]: 8 to 16 µg/mL (≈ 40 to 79.9 µM) | MIC [12]: 25 µg/mL (≈ 125 µM) | MIC [13]: < 1.56 µg/mL | MIC [14]: 2 µg/mL (≈ 9.99 µM) | MIC [15]: 25 to 50 µg/mL (≈ 125 to 250 µM) | Mortality [16, 26]: 1/8 | Avg. Wt. Gain [16, 26]: 36.6 lbs. | Mortality [16, 27]: 1/8 | Avg. Wt. Gain [16, 27]: 55.3 lbs. | surviving treated calves with P. multocida or hemolytica in nasal swabs ([16]; 200 and 400 mg. per day groups, end of 56 days): 11 of the 14 surviving treated calves | surviving calves with E. coli in rectal swabs ([16]; of 14 surviving treated calves, end of 56 days): 12 of the surviving calves | Days Survived ([17]; two subcutaneous doses of 83 mg./kg., 1 and 5 hours): 5.0 days | ED50 ([17]; Streptococcus pyogenes, sc, subcutaneous, 1 and 5 hours post-inoculation): 53.7 mg/kg | pasteurellae identified in lungs [18, 28]: No pasteurellae were identified in the lungs of any of the three animals | physical examination of lungs [18, 28]: minor consolidation or emphysema in areas of the lungs | extent of pasteurella infection ([18]; indicated by temperatures, 25 mg. per kg. intramuscular): only a very mild pasteurella infection | Average Temperature ([18]; post-challenge, 25 mg. per kg. intramuscular daily for five days): 102.7 ° F. | MIC [19]: 1.56 µg/mL (≈ 7.79 µM)
